Measurements taken from patent US20060069132A1, “Azolecarboxamide herbicides” (priority 2004, published 2006).

What was measured:
large crabgrass = assay: Test E pre-/postemergence herbicide test; type: in vivo, Digitaria sanguinalis; details: Preemergence
In short: (§1)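 Pre-/postemergence spray, solvent + surfactant vehicle; post timing 1- to 4-leaf stage (2–18 cm). Greenhouse 12–14 d. Visual score 0 (no effect) to 100 (complete control) relative to controls.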

common ragweed = assay: Test E pre-/postemergence herbicide test; type: in vivo, Ambrosia elatior; details: Preemergence
In short: as §1

prickly sida = assay: Test E pre-/postemergence herbicide test; type: in vivo, Sida spinosa; details: Preemergence
In short: as §1

bipinnate beggarticks = assay: Test E pre-/postemergence herbicide test; type: in vivo, Bidens bipinnata; details: Preemergence
From the text: Seeds of plant species selected from bipinnate beggarticks (Bidens bipinnata L.), hairy beggarticks (Bidens radiata Thuill.), bermudagrass (Cynodon dactylon (L.) Pers.), Surinam grass (Urochloa decumbens (Staph) R. D. Webster, previously named Brachiaria decumbens Stapf), large crabgrass (Digitaria sanguinalis (L.) Scop.), green foxtail (Setaria viridis (L.) P. Beauv.), goosegrass (Eleusine indica (L.) Gaertn.), johnsongrass (Sorghum halepense (L.) Pers.), kochia (Kochia scoparia (L.) Schrad.), pitted morningglory (Ipomoea lacunosa L.), purple nutsedge (Cyperus rotundus L.), common ragweed (Ambrosia elatior L.), mustard (Brassica nigra (L.) W. D. J. Koch), guineagrass (Panicum maximum Jacq.), dallisgrass (Paspalum dilatatum Poir.), barnyardgrass (Echinochloa crus-galli (L). P. Beauv.), southern sandbur (Cenchrus echinatus L.), common sowthistle (Sonchus oleraceous L.), prickly sida (Sida spinosa L.), Italian ryegrass (Lolium multiflorum Lam.), common purslane (Portulaca oleracea L.), broadleaf signalgrass (Brachiaria platyphylla (Griseb.) Nash), common groundsel (Senecio vulgaris L.), common chickweed (Stellaria media (L.) Vill/Cyr.), tropical spiderwort (Commelina benghalensis L.), annual bluegrass (Poa annua L.), downy bromegrass (Bromus tectorum L.), itchgrass (Rottboellia cochinchinensis (L.) L.f.), quackgrass (Elytrigia repens (L.) Nevski), Canada horseweed (Erigeron Canadensis L.), field bindweed (Convolvulus arvensis L.), spotted spurge (Euphorbia maculata L.), common mallow (Malva sylvestris (=s silvestris) L.), and Russian thistle (Salsola kali L. ssp. Ruthenica (Iljin) Soo) were planted and treated preemergence with test chemicals formulated in a non-phytotoxic solvent mixture which included a surfactant.
At the same time, plants selected from these weed species were treated with postemergence applications of some of the test chemicals formulated in the same manner. Plants ranged in height from 2 to 18 cm (1- to 4-leaf stage) for postemergence treatments. Treated plants and controls were maintained in a greenhouse for 12 to 14 days, after which time all species were compared to controls and visually evaluated. Plant response ratings, summarized in Table E, are based on a scale of 0 to 100 where 0 is no effect and 100 is complete control. A dash (-) response means no test result.

field bindweed = assay: Test E pre-/postemergence herbicide test; type: in vivo, Convolvulus arvensis; details: Preemergence
In short: as §1

quackgrass = assay: Test E pre-/postemergence herbicide test; type: in vivo, Elytrigia repens; details: Preemergence
In short: as §1

windgrass = assay: Test C postemergence herbicide test; type: in vivo, Apera spica-venti; details: postemergence, scale 0 to 100
In short: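 After a postemergence application at 1 to 4 leaves (plants 2–18 cm high), or at 2 leaves for barnyardgrass in flooded paddy, plants stayed in the greenhouse for 12 to 14 days. Damage was then judged visually relative to control plants, with 100 indicating complete control.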

annual bluegrass = assay: Test E pre-/postemergence herbicide test; type: in vivo, Poa annua; details: Preemergence
In short: as §1

itchgrass = assay: Test E pre-/postemergence herbicide test; type: in vivo, Rottboellia cochinchinensis; details: Preemergence
In short: as §1

dallisgrass = assay: Test E pre-/postemergence herbicide test; type: in vivo, Paspalum dilatatum; details: Preemergence
In short: as §1

[1] = 250 g ai/ha, scale 0 (no effect) to 100 (complete control)
[2] = 500 g ai/ha, scale 0 (no effect) to 100 (complete control)

| Compound | Plant response rating, Crabgrass, Large (large crabgrass; 62 g ai/ha, scale 0 to 100) | Plant response rating, Crabgrass, Large (large crabgrass; 125 g ai/ha, scale 0 to 100) | Plant response rating, Crabgrass, Large (large crabgrass; [1]) | Plant response rating, Crabgrass, Large (large crabgrass; [2]) | Plant response rating, Ragweed (common ragweed; 62 g ai/ha, scale 0 to 100) | Plant response rating, Ragweed (common ragweed; 125 g ai/ha, scale 0 to 100) | Plant response rating, Ragweed (common ragweed; [1]) | Plant response rating, Ragweed (common ragweed; [2]) | Plant response rating, Prickly Sida (prickly sida; 62 g ai/ha, scale 0 to 100) | Plant response rating, Prickly Sida (prickly sida; [1]) | Plant response rating, Prickly Sida (prickly sida; [2]) | Plant response rating, Beggarticks, Bip. (bipinnate beggarticks; 62 g ai/ha, scale 0 to 100) | Plant response rating, Beggarticks, Bip. (bipinnate beggarticks; [1]) | Plant response rating, Bindweed, Field (field bindweed; 62 g ai/ha, scale 0 to 100) | Plant response rating, Bindweed, Field (field bindweed; [1]) | Plant response rating, Bindweed, Field (field bindweed; [2]) | Plant response rating, Quackgrass (quackgrass; 62 g ai/ha, scale 0 to 100) | Plant response rating, Quackgrass (quackgrass; 125 g ai/ha, scale 0 to 100) | Plant response rating, Quackgrass (quackgrass; [1]) | Plant response rating, Quackgrass (quackgrass; [2]) | further results |
| --- | --- | --- | --- | --- | --- | --- | --- | --- | --- | --- | --- | --- | --- | --- | --- | --- | --- | --- | --- | --- | --- |
| CCc1nn(C(C)(C)C)nc1C(=O)Nc1cccc(C(=O)N(C)CC)c1 [Compound 384] | 90 | 100 | 100 | 100 | 0 | 10 | 40 | 40 | 60 | 60 | 95 | 10 | 100 | 80 | 80 | 95 | 50 | 70 | 85 | 85 | Plant response rating, Windgrass (windgrass; 125 g ai/ha): 45; Plant response rating, Windgrass (windgrass; 62 g ai/ha): 45; Plant response rating, Bluegrass (annual bluegrass; 62 g ai/ha, scale 0 to 100): 50; Plant response rating, Bluegrass (annual bluegrass; 125 g ai/ha, scale 0 to 100): 75; Plant response rating, Bluegrass (annual bluegrass; [1]): 80; Plant response rating, Bluegrass (annual bluegrass; [2]): 95; Plant response rating, Itchgrass (itchgrass; 62 g ai/ha, scale 0 to 100): 40; Plant response rating, Itchgrass (itchgrass; 125 g ai/ha, scale 0 to 100): 60; Plant response rating, Itchgrass (itchgrass; [1]): 70; Plant response rating, Itchgrass (itchgrass; [2]): 85; Plant response rating, Dallisgrass (dallisgrass; 62 g ai/ha, scale 0 to 100): 10; Plant response rating, Dallisgrass (dallisgrass; 125 g ai/ha, scale 0 to 100): 70; Plant response rating, Dallisgrass (dallisgrass; [1]): 75; Plant response rating, Dallisgrass (dallisgrass; [2]): 90 |
| Cc1nn(C(C)(C)C)nc1C(=O)Nc1cccc(C(=O)N2CC=CC2)c1 [Compound 393] | 10 | 80 | 95 | 100 | 0 | 10 | 20 | 80 | 30 | 75 | 100 | 30 | 100 | 0 | 60 | 70 | 50 | 50 | 60 | 60 | Plant response rating, Prickly Sida (prickly sida; 125 g ai/ha, scale 0 to 100): 70; Plant response rating, Beggarticks, Bip. (bipinnate beggarticks; 125 g ai/ha, scale 0 to 100): 100; Plant response rating, Beggarticks, Bip. (bipinnate beggarticks; [2]): 100; Plant response rating, Bindweed, Field (field bindweed; 125 g ai/ha, scale 0 to 100): 20; Plant response rating, Windgrass (windgrass; 125 g ai/ha): 55; Plant response rating, Windgrass (windgrass; 62 g ai/ha): 45; Plant response rating, Bluegrass (annual bluegrass; 62 g ai/ha, scale 0 to 100): 10; Plant response rating, Bluegrass (annual bluegrass; 125 g ai/ha, scale 0 to 100): 30; Plant response rating, Bluegrass (annual bluegrass; [1]): 75; Plant response rating, Bluegrass (annual bluegrass; [2]): 95; Plant response rating, Itchgrass (itchgrass; 62 g ai/ha, scale 0 to 100): 0; Plant response rating, Itchgrass (itchgrass; 125 g ai/ha, scale 0 to 100): 10; Plant response rating, Itchgrass (itchgrass; [1]): 30; Plant response rating, Itchgrass (itchgrass; [2]): 60; Plant response rating, Dallisgrass (dallisgrass; 62 g ai/ha, scale 0 to 100): 0; Plant response rating, Dallisgrass (dallisgrass; 125 g ai/ha, scale 0 to 100): 10; Plant response rating, Dallisgrass (dallisgrass; [1]): 75; Plant response rating, Dallisgrass (dallisgrass; [2]): 85 |
| CCc1nn(C(C)(C)C)nc1C(=O)Nc1cccc(C(=S)N(C)C)c1 [Compound 395] | 80 | 100 | 100 | 100 | 10 | 20 | 60 | 60 | 60 | 95 | 95 | 40 | 100 | 10 | 60 | 70 | 60 | 80 | 85 | 90 | Plant response rating, Prickly Sida (prickly sida; 125 g ai/ha, scale 0 to 100): 95; Plant response rating, Beggarticks, Bip. (bipinnate beggarticks; 125 g ai/ha, scale 0 to 100): 100; Plant response rating, Beggarticks, Bip. (bipinnate beggarticks; [2]): 100; Plant response rating, Bindweed, Field (field bindweed; 125 g ai/ha, scale 0 to 100): 40; Plant response rating, Bluegrass (annual bluegrass; 62 g ai/ha, scale 0 to 100): 30; Plant response rating, Bluegrass (annual bluegrass; 125 g ai/ha, scale 0 to 100): 80; Plant response rating, Bluegrass (annual bluegrass; [1]): 95; Plant response rating, Bluegrass (annual bluegrass; [2]): 95; Plant response rating, Itchgrass (itchgrass; 62 g ai/ha, scale 0 to 100): 20; Plant response rating, Itchgrass (itchgrass; 125 g ai/ha, scale 0 to 100): 60; Plant response rating, Itchgrass (itchgrass; [1]): 60; Plant response rating, Itchgrass (itchgrass; [2]): 80; Plant response rating, Dallisgrass (dallisgrass; 62 g ai/ha, scale 0 to 100): 50; Plant response rating, Dallisgrass (dallisgrass; 125 g ai/ha, scale 0 to 100): 70; Plant response rating, Dallisgrass (dallisgrass; [1]): 90; Plant response rating, Dallisgrass (dallisgrass; [2]): 90 |
